Article PMC7926793, “Synthesis and Biological Evaluation of 1-(Diarylmethyl)-1H-1,2,4-triazoles and 1-(Diarylmethyl)-1H-imidazoles as a Novel Class of Anti-Mitotic Agent for Activity in Breast Cancer” (Pharmaceuticals, 2021)
Where “and” joins values, the source holds several entries; their conditions need not be identical. Equal entries are not always repeated.

Legend:
Type in all cases: cell-based, human
M14 = assay: NCI 60 cell line screen (Melanoma); details: M14, single dose 10 µM
HOP-62 = assay: NCI 60 cell line screen (Non-Small Cell Lung Cancer); details: HOP-62, single dose 10 µM
A549/ATCC = assay: as above; details: single dose 10 µM
RXF 393 = assay: NCI 60 cell line screen (Renal Cancer); details: RXF 393, single dose 10 µM
IGROV1 = assay: NCI 60 cell line screen (Ovarian Cancer); details: IGROV1, single dose 10 µM
KM12 = assay: NCI 60 cell line screen (Colon Cancer); details: KM12, single dose 10 µM
HOP-92 = assay: NCI 60 cell line screen (Non-Small Cell Lung Cancer); details: HOP-92, single dose 10 µM
DU-145 = assay: NCI 60 cell line screen (Prostate cancer); details: DU-145, single dose 10 µM
EKVX = assay: NCI 60 cell line screen (Non-Small Cell Lung Cancer); details: single dose 10 µM
SK-MEL-28 = assay: NCI 60 cell line screen (Melanoma); details: SK-MEL-28, single dose 10 µM
UO-31 = assay: NCI 60 cell line screen (Renal Cancer); details: UO-31, single dose 10 µM
HCT-116 = assay: NCI 60 cell line screen (Colon Cancer); details: HCT-116, single dose 10 µM
LOX IMV1 = assay: NCI 60 cell line screen (Melanoma); details: LOX IMV1, single dose 10 µM
A498 = assay: NCI 60 cell line screen (Renal Cancer); details: A498, single dose 10 µM
NCI-H332M = assay: NCI 60 cell line screen (Non-Small Cell Lung Cancer); details: single dose 10 µM
NCI-H460 = assay: as above; details: NCI-H460, single dose 10 µM
HL-60 (TB) = assay: NCI 60 cell line screen (Leukemia); details: single dose 10 µM
MDA-MB-435 = assay: NCI 60 cell line screen (Melanoma); details: MDA-MB-435, single dose 10 µM
SK-MEL-2 = assay: NCI 60 cell line screen (Melanoma); details: SK-MEL-2, single dose 10 µM
NCI-H226 = assay: NCI 60 cell line screen (Non-Small Cell Lung Cancer); details: NCI-H226, single dose 10 µM
OVCAR-3 = assay: NCI 60 cell line screen (Ovarian Cancer); details: OVCAR-3, single dose 10 µM
OVCAR-5 = assay: NCI 60 cell line screen (Ovarian Cancer); details: OVCAR-5, single dose 10 µM
CAKI-1 = assay: NCI 60 cell line screen (Renal Cancer); details: CAKI-1, single dose 10 µM
PC-3 = assay: NCI 60 cell line screen (Prostate cancer); details: PC-3, single dose 10 µM
OVCAR-4 = assay: NCI 60 cell line screen (Ovarian Cancer); details: OVCAR-4, single dose 10 µM
SF-268 = assay: NCI 60 cell line screen (CNS Cancer); details: SF-268, single dose 10 µM
UACC-257 = assay: NCI 60 cell line screen (Melanoma); details: UACC-257, single dose 10 µM
MDA-MB-468 = assay: NCI 60 cell line screen (Breast Cancer); details: MDA-MB-468, single dose 10 µM
MDA-MB-231/ATCC = assay: NCI 60 cell line screen (Breast Cancer); details: single dose 10 µM
HCT-2998 = assay: NCI 60 cell line screen (Colon Cancer); details: HCT-2998, single dose 10 µM

COc1ccc(C(c2cc(OC)c(OC)c(OC)c2)N2CCCCC2)cc1 (stereo not drawn) [26b, 1-((4-Methoxyphenyl)(3,4,5-Trimethoxyphenyl)Methyl)Piperidine]
Growth percentage (M14): 23.27%
Growth percentage (HOP-62): 29.82%
Growth percentage (A549/ATCC): 49.14%
Growth percentage (RXF 393): 25.99%
Growth percentage (IGROV1): 47.13%
Growth percentage (KM12): 30.23%
Growth percentage (HOP-92): 44.15%
Growth percentage (DU-145): 64.18%
Growth percentage (EKVX): 59.13%
Growth percentage (SK-MEL-28): 47.22%
Growth percentage (UO-31): 48.76%
Growth percentage (HCT-116): 29.08%
Growth percentage (LOX IMV1): 36.34%
Growth percentage (A498): 7.32%
Growth percentage (NCI-H332M): 47.90%
Growth percentage (NCI-H460): 19.38%
Growth percentage (HL-60 (TB)): 4.36%
Growth percentage (MDA-MB-435): -21.79%
Growth percentage (SK-MEL-2): 22.02%
Growth percentage (NCI-H226): 55.46%
Growth percentage (OVCAR-3): 8.29%
Growth percentage (OVCAR-5): 69.57%
Growth percentage (CAKI-1): 29.22%
Growth percentage (PC-3): 25.08%
Growth percentage (OVCAR-4): 69.25%
Growth percentage (SF-268): 47.22%
Growth percentage (UACC-257): 54.88%
Growth percentage (MDA-MB-468): 9.32% and 9.3%
Growth percentage (MDA-MB-231/ATCC): 53.09%
Growth percentage (HCT-2998): 79.59%
